According to patent US10537550B2, “Methods of treating underlying inflammation from COPD or asthma” (MEDA PHARMA GMBH & CO. KG, priority 2004, dated 2020):
Like-named read-outs stand apart in the source and are kept apart here.

Assays:
[1] = tested on: TNFα release from human peripheral blood mononuclear cells (PBMCs); experiment: LPS-induced TNFα release from human PBMCs/monocytes (sandwich ELISA); assay type: cell-based; conditions: LPS 1 μg/ml; for IC50: Homo sapiens, PBMC, read-out: IC50 of inhibition of TNFα release
Method: The influence of R,R-glycopyrrolate in combination with glucocorticoids on TNFα release was investigated by using human peripheral blood mononuclear cells (PBMCs). The study was approved by our institutional Ethics Committee according to the International Declarations of Helsinki and Tokyo. PBMCs were isolated from heparinized blood samples of healthy donors by density gradient centrifugation. An equal volume of Hanks buffer (Life Technologies, Heidelberg, Germany) is added to heparinized whole blood samples. 15 ml Histopaque-1077 (Sigma, Deisenhofen, Germany) are overlayed with a maximum of 40 ml of blood/Hanks mixture were centrifuged for 30 min at room temperature (2000 rpm). A visible band containing PBMCs is transferred to a fresh tube and washed twice with Hanks-buffer. Finally cells are seeded in RPMI 1640 Medium (Life Technologies, Heidelberg, Germany) with Glutamax I (Gibco BRL, Eggenstein) and 10% FCS (Boehringer Mannheim, Penzberg, Germany). After isolated, PBMCs were cultured in RPMI 1640 medium supplemented with 10% fetal calf serum (FCS) at 37° C. 5% CO2 overnight. Monocytes were isolated from other cells by adherence method, non-adherent cells were removed by changing the medium. Cells are re-suspended at 10^6 cells/ml and incubated in 500 μl volumes in 24-well tissue culture plates (Falcon Becton Dickinson Labware) at 37° C., 5% CO2. After pre-incubation with test substances (0.5 μl/500 μl medium) for 30 min, cells were stimulated with lipopolysaccharide (LPS) (1 μg/ml). At indicated times cells were sedimented by centrifugation, the supernatants were harvested and kept frozen at −80° C. until protein determination; the cells were lysed by RLT lysis Buffer (Qiagen, Hilden, Germany) and frozen at −80° C. until analysis. […] Plates are read at 450 nm (reference 570 nm) in a microplate reader (Dynatech). The results are expressed as a percentage of the control level of cytokines production by cells stimulated in the absence of the compound.

[2] = tested on: pulmonary M1 and M3 muscarinic receptor subtypes; conditions: following inhalation of single doses; cited from earlier work
[3] = in vivo; cited from earlier work

Structure (SMILES): C[N+]1(C)CC[C@@H](OC(=O)[C@](O)(c2ccccc2)C2CCCC2)C1.[Br-] [R,R-glycopyrrolate]
- influence on LPS-induced TNFα release ([1]; alone, up to 10 μmol/l, human monocytes): did not influence

Structure (SMILES): C[N+]1(C)[C@@H]2C[C@@H](OC(=O)C(O)(c3cccs3)c3cccs3)C[C@H]1[C@@H]1O[C@@H]12 [Tiotropium]
- duration of bronchodilation [2]: 24 h

Structure (SMILES): CCCC1O[C@@H]2C[C@H]3[C@@H]4CCC5=CC(=O)C=C[C@]5(C)[C@H]4[C@@H](O)C[C@]3(C)[C@]2(C(=O)CO)O1 (some centres unmarked) [budesonide]
- IC50 ([1]; budesonide alone, human monocytes): 0.55 ± 0.13 nM
- IC50 ([1]; simultaneous addition of 10 μmol/l R,R-glycopyrrolate, p=0.0251): 0.13 ± 0.03 nM

Structure (SMILES): C[C@@H]1C[C@H]2[C@@H]3C[C@H](F)C4=CC(=O)C=C[C@]4(C)[C@@]3(F)[C@@H](O)C[C@]2(C)[C@@]1(O)C(=O)SCF [fluticasone]
- oral bioavailability [3]: < 1%
